Structures can show the parent of a compound that is named as a salt.
Key:
[1] = system: endogenous target monocytes in human PBMC; assay: PBMC ex vivo monocyte depletion flow cytometry assay (Example 200); assay type: cell-based; conditions: with anti-cotinine antibody (SEQ ID NO: 11/12), 18-24 hours, EC50 in molar, read-out: Ex Vivo Depletion Assay pEC50 (converted)
In short: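 Monocyte depletion is reported as pEC50, averaged or given individually across runs, and read by flow cytometry staining CD45, CD14 and CD4 with a viability dye. Compounds, diluted four-fold over 11 points from 1 mM DMSO stocks, were combined with 30 μg/mL Fc-enhanced anti-cotinine antibody and human PBMC, then incubated 18-24 h at 37° C.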

[2] = target: anti-cotinine antibody (SEQ ID NO: 11/12, rabbit variable region with human IgG1 Fc DE mutation); assay: SPR binding of anti-cotinine antibody to ARM compounds, Biacore T200, 37° C. (Example 202); conditions: SPR Biacore T200, 37° C., pH 7.4, antibody SEQ ID NO: 11/12 captured on protein A; Kd in molar
Experimental: Anti-cotinine antibodies having a heavy chain sequence of SEQ ID NO: 11 and a light chain sequence of SEQ ID NO: 12 (rabbit variable region with human IgG1 Fc domain containing a DE mutation (S239D/1332E)) were captured on one or more flow cells of a protein A sensor chip (Cytiva) using a Biacore T200 while reserving flow cell 1 as a reference. Following capture, a 3000 second wait step was included to reduce drift during compound analysis. ARM compounds of Formula (I) were then injected at 100 μL/min with 200 and 2000 second association and dissociation times. The entire experiment was run at 37° C. with running buffer containing 10 mM HEPES pH 7.4, 150 mM NaCl, 0.005% P20 and 1% DMSO. ARM compounds of Formula (I) were titrated with a top concentration of 200 nM using a 3-fold 5-point dilution series and a corresponding 5-injection buffer cycle was run for blank subtraction. Data were double referenced by subtracting the response of the reference flow cell from that of the antibody-containing flow cell and subsequently subtracting the referenced blank sensorgrams. Following compound analysis, the surface was regenerated using a 30 second injection of pH 1.5 glycine at a flow rate of 30 μL/min after which antibody was re-captured. The experiment was run using Biacore T200 control software and evaluated using Biacore T200 Evaluation software. Curves were fit with a 1:1 kinetic binding model to obtain kon (1/Ms), koff(1/s), Kd (M) determined as koff/kon, and residence time determined as 1/koff (s).
Anti-cotinine antibody was tested for binding to ARMs compounds of Formula (I) of the invention in the above assay in or more experimental runs and the results are shown in Table 5 below. Affinity is reported as a pKd value. The pKd value is the negative log of the Kd value, wherein the Kd value is the dissociation constant measured in molar (M) as noted above. For compounds tested in more than one experimental run, the pKd value is reported as an average

[3] = system: CCR2 expressing cells (CD11b+Ly6c+Hi) in peripheral blood; assay: In vivo depletion assay, flow cytometry of peripheral blood (Example 201); parameters: species or system human CCR2 knock-in mice (C57 background); conditions: hCCR2 knock-in mice, IV 0.1 mpk compound + 10 mpk anti-cotinine antibody (SEQ ID NO: 13/14), peripheral blood at 48 hr
In short: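 Flow cytometry of blood collected at study termination quantified percent depletion of CD11b+Ly6c+Hi cells and CCR2 expression, using surface markers CD45, CD3, CD11b, Ly6C, human CCR2 after Fc block, with 7AAD viability stain. Compound given in saline:DMSO:PBS formulation, optionally combined with anti-cotinine antibody, incubated 30 min before administration.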

[4] = target: human alpha1 nicotinic acetylcholine (nACh) receptor (Homo sapiens, UniProt P02708); assay: Nicotinic acetylcholine receptor antagonism assay, IONFlux automated patch clamp (Example 203); assay type: cell-based; conditions: for IC50: antagonism of ACh-stimulated human alpha1 nAChR current, patch clamp; for Emax at 10 µM: maximum percentage antagonism at maximum concentration tested 10 μM, read-out: Maximum Response
Chain of human alpha1 nicotinic acetylcholine (nACh) receptor (P02708 21-457): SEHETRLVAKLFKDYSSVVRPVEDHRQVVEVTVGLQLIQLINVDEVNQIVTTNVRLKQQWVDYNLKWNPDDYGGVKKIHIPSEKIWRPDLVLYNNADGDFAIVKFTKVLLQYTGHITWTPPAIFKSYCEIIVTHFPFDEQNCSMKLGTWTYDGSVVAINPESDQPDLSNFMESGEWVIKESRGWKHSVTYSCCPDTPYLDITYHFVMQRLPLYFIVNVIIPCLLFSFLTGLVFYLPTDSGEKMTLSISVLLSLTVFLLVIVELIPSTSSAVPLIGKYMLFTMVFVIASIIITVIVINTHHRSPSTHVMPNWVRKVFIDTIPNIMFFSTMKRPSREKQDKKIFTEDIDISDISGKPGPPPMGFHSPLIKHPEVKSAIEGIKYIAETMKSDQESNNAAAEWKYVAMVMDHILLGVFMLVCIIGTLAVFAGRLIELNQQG
Chain of human alpha1 nicotinic acetylcholine (nACh) receptor (P11230 24-501 partner): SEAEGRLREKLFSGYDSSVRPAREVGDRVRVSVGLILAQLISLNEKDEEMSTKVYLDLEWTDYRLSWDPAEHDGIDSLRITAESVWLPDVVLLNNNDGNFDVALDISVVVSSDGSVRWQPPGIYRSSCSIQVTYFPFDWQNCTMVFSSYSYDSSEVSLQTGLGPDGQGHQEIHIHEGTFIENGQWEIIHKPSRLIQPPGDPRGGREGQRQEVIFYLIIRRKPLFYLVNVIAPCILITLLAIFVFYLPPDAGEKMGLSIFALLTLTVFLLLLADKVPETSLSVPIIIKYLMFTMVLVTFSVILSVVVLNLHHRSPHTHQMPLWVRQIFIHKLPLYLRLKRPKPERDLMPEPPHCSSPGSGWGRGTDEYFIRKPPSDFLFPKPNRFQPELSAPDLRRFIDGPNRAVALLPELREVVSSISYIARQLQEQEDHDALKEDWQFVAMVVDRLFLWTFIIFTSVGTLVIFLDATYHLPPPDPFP
Chain of human alpha1 nicotinic acetylcholine (nACh) receptor (Q07001 22-517 partner): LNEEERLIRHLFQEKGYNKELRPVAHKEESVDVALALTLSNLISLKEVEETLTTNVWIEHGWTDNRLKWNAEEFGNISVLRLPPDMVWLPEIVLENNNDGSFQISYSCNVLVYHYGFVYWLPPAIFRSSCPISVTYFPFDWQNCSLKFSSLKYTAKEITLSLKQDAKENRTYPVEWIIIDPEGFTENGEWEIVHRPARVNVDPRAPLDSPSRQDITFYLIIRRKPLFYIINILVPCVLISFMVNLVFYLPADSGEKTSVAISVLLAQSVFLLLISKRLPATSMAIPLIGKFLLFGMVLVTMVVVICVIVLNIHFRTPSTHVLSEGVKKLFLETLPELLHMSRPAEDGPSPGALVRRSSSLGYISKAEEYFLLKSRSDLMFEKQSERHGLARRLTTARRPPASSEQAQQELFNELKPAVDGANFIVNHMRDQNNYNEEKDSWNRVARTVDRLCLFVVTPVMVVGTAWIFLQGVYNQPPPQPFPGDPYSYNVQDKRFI
Experimental: Cells expressing human alpha1 nicotinic acetylcholine (nACh) receptor (nAChR) were washed and dissociated using Trypsin containing buffer. Cells were then washed and seeded at a density of 3-5 million cells/mL and allowed to grow for 3 days. Then, 60-80 μL of cells were added to plates and incubated with dose response of an ARM compound of Formula (I) with a top concentration of either 10 μM or 100 μM. The receptor was then stimulated via addition of acetylcholine (ACh) and activation of the receptor was monitored via the IONFlux automated patch clamp system. IonFlux Data Analyzer software was utilized to perform leak subtraction and measure (min) peak current amplitude.
Data processing: (1) Current values recorded for vehicle only applications in individual traps/patterns were subtracted from corresponding current amplitude values for control, test article and control+test article. (2) Control response was calculated as % of the average response of the 3rd out of total 3 ACh (10 mM) applications alone. In rare situations, if the 3rd ACh response was obscured due to technical artifacts, the 2nd and/or 1st ACh (10 mM) application was considered as control. The peak current amplitude generated in the presence of each test article concentration was then used to calculate the % inhibition as compared to control response (10 mM ACh alone). These estimates were further corrected for vehicle response and run down corrected by normalizing with time matched control responses (10 mM ACh alone). The corrected percentages were then fit with a non-linear function in GraphPad Prism 6 (or later versions) to determine the IC50.
Exclusion criteria: (i) any n's with poor recording quality, (ii) control current amplitude <500 pA or (iii) significant outliers, as determined by the Grubbs test.
ARMs compounds of Formula (I) of the invention were tested for antagonism of the nAChR in the above assay in […] experimental runs and the results are shown in Table 7 below. Antagonistic activity of the compounds of Formula (I) of the invention is reported as an IC50 value (half maximal inhibitory concentration) and the maximum percentage antagonism observed at the highest concentration of compound of Formula (I) tested, as indicated in Table 7. For compounds tested in more than one experimental run, the IC50 value is reported as an average

| Compound | EC50 [1] [nM] | pKd of Antibody for ARM Compound of Formula (I) [2] | % Depletion of CCR2 expressing cells [3] [%] | IC50 [4] [nM] | Emax at 10 µM [4] [%] |
| --- | --- | --- | --- | --- | --- |
| CC(C)N(C)[C@@H]1CC[C@H](N2CC[C@H](Nc3ncnc4ccc(C(F)(F)F)cc34)C2=O)[C@H](NC(=O)C2CCN(C(=O)CCOCCOCCOCCNC(=O)[C@H]3CC(=O)N(C)[C@@H]3c3cccnc3)CC2)C1 [Example 29, N-((1R,2S,5R)-5-(Isopropyl(methyl)amino)-2-((S)-2-oxo-3-((6-(trifluoromethyl)quinazolin-4-yl)amino)pyrrolidin-1-yl)cyclohexyl)-1-(1-((2S,3S)-1-methyl-5-oxo-2-(pyridin-3-yl)pyrrolidin-3-yl)-1-oxo-5,8,11-trioxa-2-azatetradecan-14-oyl)piperidine-4-carboxamide] | 2.51 | 9.3345 |  |  |  |
| CC(C)N(C)[C@@H]1CCC(N2CC[C@H](Nc3ncnc4ccc(C(F)(F)F)cc34)C2=O)[C@H](NC(=O)CCOCCOCCOCCOCCOCCOCCOCCOCCNC(=O)[C@H]2CC(=O)N(C)[C@@H]2c2cccnc2)C1 (stereo partly drawn) [Example 42, (2S,3S)-N-(27-(((1R,2S,5R)-5-(isopropyl(methyl)amino)-2-((S)-2-oxo-3-((6-(trifluoromethyl)quinazolin-4-yl)amino)pyrrolidin-1-yl)cyclohexyl)amino)-27-oxo-3,6,9,12,15,18,21,24-octaoxaheptacosyl)-1-methyl-5-oxo-2-(pyriidn-3-yl)pyrrolidine-3-carboxamide] | 3.16 | 9.23 |  |  |  |
| CC(C)N(C)[C@@H]1CC[C@H](N2CC[C@H](Nc3ncnc4ccc(C(F)(F)F)cc34)C2=O)[C@H](NC(=O)COCCNC(=O)CCOCCOCCNC(=O)CCNC(=O)[C@H]2CC(=O)N(C)[C@@H]2c2cccnc2)C1 [Example 50, (2S,3S)-N-(1-(((1R,2S,5R)-5-(Isopropyl(methyl)amino)-2-((S)-2-oxo-3-((6-(trifluromethyl)quinazolin-4-yl)amino)pyrrolidin-1-yl)cyclohexyl)amino)-1,7,17-trioxo-3,10,13-trioxa-6,16-diazanonadecan-19-yl)-1-methyl-5-oxo-2-(pyridin-3-yl)pyrrolidine-3-carboxamide] | 0.126 | 9.1485 |  |  |  |
| CC(C)N(C)[C@@H]1CC[C@H](N2CC[C@H](Nc3ncnc4ccc(C(F)(F)F)cc34)C2=O)[C@H](NC(=O)[C@H]2C[C@H](NC(=O)CCOC[C@H]3CC[C@H](COCCNC(=O)[C@H]4CC(=O)N(C)[C@@H]4c4cccnc4)CC3)C2)C1 [Example 54, (2S,3S)-N-(2-(((1R,4S)-4-((3-(((1R,3R)-3-(((1R,2S,5R)-5-(Isopropyl(methyl)amino)-2-((S)-2-oxo-3-((6-(trifluoromethyl)quinazolin-4-yl)amino)pyrrolidin-1-yl)cyclohexyl)carbamoyl)cyclobutyl)amino)-3-oxopropoxy)methyl)cyclohexyl)methoxy)ethyl)-1-methyl-5-oxo-2-(pyridin-3-yl)pyrrolidine-3-carboxamide] | 1 | 9.5515 |  |  |  |
| CN1C(=O)C[C@H](C(=O)NCC(=O)NCCOCCOCCC(=O)N[C@H]2CC[C@@H](C(=O)N[C@@H]3C[C@H](NC(C)(C)C)CC[C@@H]3N3CC[C@H](Nc4ncnc5ccc(C(F)(F)F)cc45)C3=O)CC2)[C@H]1c1cccnc1 [Example 65, (2S,3S)-N-(2-((2-(2-(3-(((1S,4s)-4-(((1R,2S,5R)-5-(tert-Butylamino)-2-((S)-2-oxo-3-((6-(trifluoromethyl)quinazolin-4-yl)amino)pyrrolidin-1-yl)cyclohexyl)carbamoyl)cyclohexyl)amino)-3-oxopropoxy)ethoxy)ethyl)amino)-2-oxoethyl)-1-methyl-5-oxo-2-(pyridin-3-yl)pyrrolidine-3-carboxamide] | 100000 | 8.648 |  |  |  |
| CC(C)N(C)[C@@H]1CC[C@H](N2CC[C@H](Nc3ncnc4ccc(C(F)(F)F)cc34)C2=O)[C@H](NC(=O)C2CCN(c3ccc(C(=O)NCCOCCOCCNC(=O)[C@H]4CC(=O)N(C)[C@@H]4c4cccnc4)cc3)CC2)C1 [Example 142, N-((1R,2S,5R)-5-(Isopropyl(methyl)amino)-2-((S)-2-oxo-3-((6-(trifluoromethyl)quinazolin-4-yl)amino)pyrrolidin-1-yl)cyclohexyl)-1-(4-((2-(2-(2-((2S,3S)-1-methyl-5-oxo-2-(pyridin-3-yl)pyrrolidine-3-carboxamido)ethoxy)ethoxy)ethyl)carbamoyl)phenyl)piperidine-4-carboxamide] | 0.398 |  | 79.27 | ≥ 10000 | 13.1 |
| CC(C)N(C)[C@@H]1CC[C@H](N2CC[C@H](Nc3ncnc4ccc(C(F)(F)F)cc34)C2=O)[C@H](NC(=O)[C@H]2CC[C@@H](NC(=O)COCCOCCNC(=O)CNC(=O)[C@H]3CC(=O)N(C)[C@@H]3c3cccnc3)CC2)C1 [Example 171, (2S,3S)-N-(2-((2-(2-(2-(((1S,4s)-4-(((1R,2S,5R)-5-(Isopropyl(methyl)amino)-2-((S)-2-oxo-3-((6-(trifluoromethyl)quinazolin-4-yl)amino)pyrrolidin-1-yl)cyclohexyl)carbamoyl)cyclohexyl)amino)-2-oxoethoxy)ethoxy)ethyl)amino)-2-oxoethyl)-1-methyl-5-oxo-2-(pyridin-3-yl)pyrrolidine-3-carboxamide] |  | 8.7865 |  |  |  |
| CC(C)N(C)[C@@H]1CC[C@H](N2CC[C@H](Nc3ncnc4ccc(C(F)(F)F)cc34)C2=O)[C@H](NC(=O)CCOCCN2CCC3(CCC(C(=O)NCCNC(=O)[C@H]4CC(=O)N(C)[C@@H]4c4cccnc4)CC3)CC2)C1 [Example 184, 3-(2-(3-(((1R,2S,5R)-5-(isopropyl(methyl)amino)-2-((S)-2-oxo-3-((6-(trifluoromethyl)quinazolin-4-yl)amino)450yridine450ne-1-yl)cyclohexyl)amino)-3-oxopropoxy)ethyl)-N-(2-((2S,3S)-1-methyl-5-oxo-2-(450yridine-3-yl)pyrrolidine-3-carboxamido)ethyl)-3-azaspiro[5.5]undecane-9-carboxamide, 3Formic acid salt] | 0.251 |  | 85.99 | 6390 | 69.2 |
